Results on one compound are retold here after PMC9315372, “Impact of Sub-MIC Eugenol on Klebsiella pneumoniae Biofilm Formation via Upregulation of rcsB” (Frontiers in Veterinary Science, 2022).

The target in the experiment is T1, RcsB (Klebsiella pneumoniae, UniProt W1DMM9).
T1 construct: expressed and purified earlier in the laboratory
Nature of the experiment: microscale thermophoresis (Monolith NT.[…]). It counts as binding.

T1 sequence (W1DMM9 entry or part of it): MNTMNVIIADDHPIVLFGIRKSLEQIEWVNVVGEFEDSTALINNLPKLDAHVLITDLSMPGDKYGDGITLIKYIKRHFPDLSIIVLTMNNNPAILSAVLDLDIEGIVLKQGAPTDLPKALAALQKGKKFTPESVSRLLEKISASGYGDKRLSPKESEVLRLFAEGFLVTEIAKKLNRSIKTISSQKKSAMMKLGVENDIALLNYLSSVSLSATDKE

As usually defined, the Kd is the constant that tells how readily two partners part at equilibrium. A higher Kd goes with weaker binding. In the case of `C=CCc1ccc(O)c(OC)c1` [eugenol], binding was characterised by a dissociation constant (Kd) of 53.4 µM.
